According to US4015974A, “Amido phosphorothiolates” (priority 1972, dated 1977):

Assays:
Type in all cases: in vivo
[1] = system: barnyard grass (Echinochloa crus-galli); assay: Water application, herbicidal effect on barnyard grass (Table 2); set-up: key: 0: not damaged; 5: completely killed; settings: 25 days, score 0-5
Description: (§1) Wagner pots of 14 cm. in diameter, which had been packed with 1.5 kg. of paddy field soil, were brought into the state of paddy fields. To the pots were transplanted rice seedlings at the 3-leave stage. Further, seeds of barnyard grass (Echinochloa crus-galli) were sowed in the pots and required amounts of test compounds were applied to the soil under water lodged condition. 25 days after application, the degrees of herbicidal activity and phytotoxity were investigated on above-mentioned plants which had been transplanted and sowed, and on broad-leaved weeds, e.g., monochoria (Monochoria viaginalis Presl.), false pimpernel (Linderna pyxidaria) and toothcup (Rotala indica Koehue), which had been spontaneously germinated. The test compounds were used in the form of wettable powder. The herbicidal effects and the phytotoxity were evaluated as follows by the numerals ranging from 0 to 5.

[2] = system: barnyard grass (Echinochloa crus-galli); assay: Pre-emergence application, herbicidal effect on barnyard grass (Table 1); set-up: key: 0: not damaged; 5: completely killed; settings: 20 days after application, score 0-5
Description: (§2) Seeds of barnyard grass (Echinochloa crus-galli) and large crabgrass (Digitaria sanguinalis) as representatives of grassy weeds and those of radish, redroot pigweed (Amaranthus retroflexus), common purslane (Portulaca oleracea) and common lambsquarter (Chenopodium album) as representatives of broad-leaved weeds were individually sowed in flower pots of about 10 cm. in diameter. After covering the seeds with soil, test compounds as shown in Table 1 were individually applied to the soil treatment. Thereafter the plants were grown in a green house and 20 days after application the herbicidal effects of the compounds were observed, the results of which are as shown in Table 1.
(§3) Herbicidal effects were evaluated by the numerals ranging from 0 (not damaged) to 5 (completely killed). All the test compounds were used in the form of wettable powder and diluted with water before application.

[3] = system: common purslane (Portulaca oleracea); assay: Pre-emergence application, herbicidal effect on common purslane (Table 1); set-up: key: 0: not damaged; 5: completely killed; settings: 20 days after application, score 0-5
Description: as §2, §3

[4] = system: radish; assay: Pre-emergence application, herbicidal effect on radish (Table 1); set-up: key: 0: not damaged; 5: completely killed; settings: 20 days after application, score 0-5
Description: as §2, §3

[5] = system: large crabgrass (Digitaria sanguinalis); assay: Pre-emergence application, herbicidal effect on large crabgrass (Table 1); set-up: key: 0: not damaged; 5: completely killed; settings: 20 days after application, score 0-5
Description: as §2, §3

[6] = system: rice; assay: Water application, phytotoxicity on rice (Table 2); set-up: key: 0: no effect; 1: very slightly affected; 2: slightly affected; 3: moderately affected; 4: considerably affected; 5: completely killed; settings: 25 days, score 0-5
Description: as §1

[7] = system: redroot pigweed (Amaranthus retroflexus); assay: Pre-emergence application, herbicidal effect on redroot pigweed (Table 1); set-up: key: 0: not damaged; 5: completely killed; settings: 20 days after application, score 0-5
Description: as §2, §3

[8] = system: broad-leaved weeds, e.g., monochoria, false pimpernel and toothcup; assay: Water application, herbicidal effect on broad-leaved weeds (Table 2); set-up: key: 0: not damaged; 5: completely killed; settings: 25 days, score 0-5
Description: as §1

[9] = system: common lambsquarter (Chenopodium album); assay: Pre-emergence application, herbicidal effect on common lambsquarter (Table 1); set-up: key: 0: not damaged; 5: completely killed; settings: 20 days after application, score 0-5
Description: as §2, §3

Compound | Herbicidal effects, barnyard grass ([1]; 10 g/a) | Herbicidal effects, barnyard grass ([1]; 20 g/a) | Herbicidal effects, barnyard grass ([1]; 40 g/a) | Herbicidal effect, barnyard grass ([2]; 10 g./a.) | Herbicidal effect, barnyard grass ([2]; 20 g./a.) | Herbicidal effect, barnyard grass ([2]; 40 g./a.) | Herbicidal effect, common purslane ([3]; 10 g./a.) | Herbicidal effect, common purslane ([3]; 20 g./a.) | Herbicidal effect, common purslane ([3]; 40 g./a.) | Herbicidal effect, radish ([4]; 10 g./a.) | Herbicidal effect, radish ([4]; 20 g./a.) | Herbicidal effect, radish ([4]; 40 g./a.) | Herbicidal effect, large crabgrass ([5]; 10 g./a.) | Herbicidal effect, large crabgrass ([5]; 20 g./a.) | Herbicidal effect, large crabgrass ([5]; 40 g./a.) | Phytotoxicity on rice ([6]; 10 g/a) | Phytotoxicity on rice ([6]; 20 g/a) | Phytotoxicity on rice ([6]; 40 g/a) | Herbicidal effect, redroot pigweed ([7]; 10 g./a.) | Herbicidal effect, redroot pigweed ([7]; 20 g./a.) | also measured
CCCOP(=O)(SCC(=O)N1CCCCC1C)SCC(C)C (stereo not drawn) [Compound 67] | 5 | 5 | 5 | 4 | 5 | 5 | 4 | 4 | 5 | 0 | 0 | 0 | 4 | 5 | 5 | 0 | 0 | 0 | 4 | 4 | Herbicidal effect, redroot pigweed ([7]; 40 g./a.): 5; Herbicidal effects, broad-leaved weeds ([8]; 10 g/a): 5; Herbicidal effects, broad-leaved weeds ([8]; 20 g/a): 5; Herbicidal effects, broad-leaved weeds ([8]; 40 g/a): 5; Herbicidal effect, common lambsquarter ([9]; 10 g./a.): 3; Herbicidal effect, common lambsquarter ([9]; 20 g./a.): 4; Herbicidal effect, common lambsquarter ([9]; 40 g./a.): 5
CCCCCSP(=O)(OCCC)SCC(=O)N1CCCCC1C (stereo not drawn) [Compound 68] | 5 | 5 | 5 | 4 | 4 | 5 | 3 | 4 | 5 | 0 | 0 | 0 | 4 | 4 | 5 | 0 | 0 | 0 | 4 | 4 | Herbicidal effect, redroot pigweed ([7]; 40 g./a.): 5; Herbicidal effects, broad-leaved weeds ([8]; 10 g/a): 5; Herbicidal effects, broad-leaved weeds ([8]; 20 g/a): 5; Herbicidal effects, broad-leaved weeds ([8]; 40 g/a): 5; Herbicidal effect, common lambsquarter ([9]; 10 g./a.): 4; Herbicidal effect, common lambsquarter ([9]; 20 g./a.): 4; Herbicidal effect, common lambsquarter ([9]; 40 g./a.): 5
CCCOP(=O)(SCCC(C)C)SCC(=O)N1CCCCC1C (stereo not drawn) [Compound 69] | 5 | 5 | 5 | 4 | 5 | 5 | 4 | 5 | 5 | 0 | 0 | 0 | 5 | 5 | 5 | 0 | 0 | 1 | 4 | 5 | Herbicidal effect, redroot pigweed ([7]; 40 g./a.): 5; Herbicidal effects, broad-leaved weeds ([8]; 10 g/a): 5; Herbicidal effects, broad-leaved weeds ([8]; 20 g/a): 5; Herbicidal effects, broad-leaved weeds ([8]; 40 g/a): 5; Herbicidal effect, common lambsquarter ([9]; 10 g./a.): 4; Herbicidal effect, common lambsquarter ([9]; 20 g./a.): 5; Herbicidal effect, common lambsquarter ([9]; 40 g./a.): 5
C=CCSP(=O)(OCCC)SCC(=O)N1CCCCC1C (stereo not drawn) [Compound 70] | 5 | 5 | 5 | 5 | 5 | 5 | 5 | 5 | 5 | 0 | 0 | 0 | 5 | 5 | 5 | 0 | 0 | 2 | 5 | 5 | Herbicidal effect, redroot pigweed ([7]; 40 g./a.): 5; Herbicidal effects, broad-leaved weeds ([8]; 10 g/a): 5; Herbicidal effects, broad-leaved weeds ([8]; 20 g/a): 5; Herbicidal effects, broad-leaved weeds ([8]; 40 g/a): 5; Herbicidal effect, common lambsquarter ([9]; 10 g./a.): 5; Herbicidal effect, common lambsquarter ([9]; 20 g./a.): 5; Herbicidal effect, common lambsquarter ([9]; 40 g./a.): 5
CCOP(=O)(SCC)SCC(=O)N1CCCC(C)C1 (stereo not drawn) [Compound 71] | 5 | 5 | 5 | 5 | 5 | 5 | 4 | 5 | 5 | 0 | 1 | 2 | 5 | 5 | 5 | 0 | 0 | 0 | 4 | 5 | Herbicidal effect, redroot pigweed ([7]; 40 g./a.): 5; Herbicidal effects, broad-leaved weeds ([8]; 10 g/a): 5; Herbicidal effects, broad-leaved weeds ([8]; 20 g/a): 5; Herbicidal effects, broad-leaved weeds ([8]; 40 g/a): 5; Herbicidal effect, common lambsquarter ([9]; 10 g./a.): 4; Herbicidal effect, common lambsquarter ([9]; 20 g./a.): 4; Herbicidal effect, common lambsquarter ([9]; 40 g./a.): 5
